ChEMBL document CHEMBL3297655, “Beyond affinity: enthalpy-entropy factorization unravels complexity of a flat structure-activity relationship for inhibition of a tRNA-modifying enzyme” (J Med Chem, 2014)

What was measured:
[1] = Inhibition of tRNA-guanine transglycosylase (unknown origin) assessed as Gibbs free enthalpy at 25 degC at 200 to 300 uM by isothermal titration calorimetry
[2] = Inhibition of tRNA-guanine transglycosylase (unknown origin) assessed as entropy at 25 degC at 200 to 300 uM by isothermal titration calorimetry
[3] = Inhibition of tRNA-guanine transglycosylase (unknown origin) assessed as buffer-corrected enthalpy values at 25 degC at 200 to 300 uM by isothermal titration calorimetry

Structure (SMILES) | deltaG [1] | -TdeltaS [2] | deltaH [3]
CNc1nc2cc3c(=O)[nH]cnc3cc2[nH]1 | -8.72 kcal/mol | 2.68 kcal/mol | -11.4 kcal/mol
O=c1[nH]cnc2cc3nc(NCc4cccs4)[nH]c3cc12 | -7.89 kcal/mol | 2.17 kcal/mol | -10.1 kcal/mol
Nc1nc2cc3nc(NCc4cccs4)[nH]c3cc2c(=O)[nH]1 | -9.49 kcal/mol | 6.36 kcal/mol | -15.8 kcal/mol
O=c1[nH]cnc2cc3nc(NCCN4CCOCC4)[nH]c3cc12 | -8.77 kcal/mol | 2.92 kcal/mol | -11.7 kcal/mol
CNc1nc2cc3c(=O)[nH]c(N)nc3cc2[nH]1 | -9.94 kcal/mol | 13.3 kcal/mol | -23.3 kcal/mol

More lines, now with the values ahead:

deltaG [1] | -TdeltaS [2] | deltaH [3] | Structure (SMILES)
-8.72 kcal/mol | 3.37 kcal/mol | -12.1 kcal/mol | O=c1[nH]cnc2cc3[nH]c(NCCN4CCCCC4)nc3cc12
-10.2 kcal/mol | 8.68 kcal/mol | -18.9 kcal/mol | Nc1nc2cc3[nH]c(NCCN4CCCCC4)nc3cc2c(=O)[nH]1
-10.2 kcal/mol | 12.9 kcal/mol | -23 kcal/mol | Nc1nc2cc3[nH]c(NCCN4CCOCC4)nc3cc2c(=O)[nH]1
